Where two headings read alike, the source gives them in different places.
Experiments:
SARS-CoV-2 3CL^pro [1] = target: T1, SARS-CoV-2 3CL^pro (Severe acute respiratory syndrome coronavirus 2 (2019-nCoV) (SARS-CoV-2), UniProt P0DTD1); assay: 3CL^pro inhibitory activity test (fluorescence resonance energy transfer); assay type: biochemical
SARS-CoV-2 3CL^pro [2] = target: T1, SARS-CoV-2 3CL^pro; assay type: cell-based; conditions: Western Blot
[3] = HEK293E cells transfected with 3CL^pro plasmid, 24 h treatment, read-out: DC50
[4] = FRET, substrate Dabcyl-KTSAVLQSGFRKME-Edans 20 μM, enzyme 0.5 μM, read-out: IC50
[5] = HEK293E cells, 24 h, read-out: DC50 values

Row | Compound | IC50 (SARS-CoV-2 3CL^pro [1]) [nM] | DC50 (SARS-CoV-2 3CL^pro [2]; [3]) [nM] | IC50 (SARS-CoV-2 3CL^pro [1]; [4]) [nM] | IC50 (SARS-CoV-2 3CL^pro [1]; FRET, read-out: IC50 values) [nM] | DC50 (SARS-CoV-2 3CL^pro [2]; [5]) [nM]
1 | Cn1cc2cc(/N=c3\[nH]c(=O)n(Cc4cn(CCC(=O)Nc5cccc6c5CN(C5CCC(=O)NC5=O)C6=O)nn4)c(=O)n3Cc3cc(F)c(F)cc3F)c(Cl)cc2n1 (stereo not shown) [Compound 1] | 100 to 1000 | 100 to 1000 |  |  | 
2 | Cn1cc2cc(/N=c3\[nH]c(=O)n(Cc4cn(CCCCCC(=O)Nc5cccc6c5CN(C5CCC(=O)NC5=O)C6=O)nn4)c(=O)n3Cc3cc(F)c(F)cc3F)c(Cl)cc2n1 (stereo not shown) [Compound 4, (E)-6-(4-((4-((6-chloro-2-methyl-2H-indazol-5-yl)imino)-2,6-dioxy-3-(2,4,5-Trifluorobenzyl)-1,3,5-triazin-1-yl)methyl)-1H-1,2,3-triazol-1-yl)-N-(2-Preparation of (2,6-Dioxypiperidin-3-yl)-1-oxoisoquinolin-4-yl)hexanamide] |  | < 100 | < 100 | < 100 | < 100
3 | Cn1cc2cc(/N=c3\[nH]c(=O)n(Cc4cn(CCC(=O)Nc5cccc6c5C(=O)N(C5CCC(=O)NC5=O)C6=O)nn4)c(=O)n3Cc3cc(F)c(F)cc3F)c(Cl)cc2n1 (stereo not shown) [Compound 7, (E)-3-(4-((4-((6-chloro-2-methyl-2H-indazol-5-yl)imino)-2,6-dioxy-3-(2,4,5-Trifluorobenzyl)-1,3,5-triazin-1-yl)methyl)-1H-1,2,3-triazol-1-yl)-N-(2-Preparation of (2,6-dioxopiperidin-3-yl)-1,3-dioxoisoindolin-4-yl)propionamide] | 100 to 1000 | 100 to 1000 |  |  | 
4 | Cn1cc2cc(/N=c3\[nH]c(=O)n(Cc4cn(CCOCC(=O)Nc5cccc6c5CN(C5CCC(=O)NC5=O)C6=O)nn4)c(=O)n3Cc3cc(F)c(F)cc3F)c(Cl)cc2n1 (stereo not shown) [Compound 13, (E)-2-(2-(4-((4-((6-chloro-2-methyl-2H-indazol-5-yl)imino)-2,6-dioxy-3-(2,4,5-Trifluorobenzyl)-1,3,5-triazin-1-yl)methyl)-1H-1,2,3-triazol-1-yl)ethoxyyl)-N-(2-(2,6-dioxopiperidin-3-yl)-1-oxoisoquinolin-4-yl)acetamide] | 100 to 1000 | < 100 |  |  | < 100
5 | Cn1cc2cc(/N=c3\[nH]c(=O)n(Cc4cn(CCOCCOCC(=O)Nc5cccc6c5CN(C5CCC(=O)NC5=O)C6=O)nn4)c(=O)n3Cc3cc(F)c(F)cc3F)c(Cl)cc2n1 (stereo not shown) [Compound 14, (E)-2-(2-(2-(4-((4-((6-chloro-2-methyl-2H-indazol-5-yl)imino)-2,6-Dioxy-3-(2,4,5-trifluorobenzyl)-1,3,5-triazin-1-yl)methyl)-1H-1,2,3-triazol-1-yl)ethoxy)ethoxy)-N-(2-(2,6-dioxopiperidin-3-yl)-1-oxoisoindolin-4-yl)acetamide] |  | < 100 |  |  | < 100
6 | Cn1cc2cc(/N=c3\[nH]c(=O)n(Cc4cn(CCOCCOCCOCC(=O)Nc5cccc6c5CN(C5CCC(=O)NC5=O)C6=O)nn4)c(=O)n3Cc3cc(F)c(F)cc3F)c(Cl)cc2n1 (stereo not shown) [Compound 15, (E)-2-(2-(2-(2-(4-((4-((6-chloro-2-methyl-2H-indazol-5-yl)imino)-2,6-Dioxy-3-(2,4,5-trifluorobenzyl)-1,3,5-triazin-1-yl)methyl)-1H-1,2,3-triazole-1-yl)ethoxy)ethoxy)ethoxy)-N-(2-(2,6-dioxopiperidin-3-yl)-1-oxoisoindolin-4-yl)ethyl Preparation of amides] | 100 to 1000 | < 100 |  |  | < 100
7 | Cn1cc2cc(/N=c3\[nH]c(=O)n(Cc4cn(CCOCCOCC(=O)Nc5cccc6c5C(=O)N(C5CCC(=O)NC5=O)C6=O)nn4)c(=O)n3Cc3cc(F)c(F)cc3F)c(Cl)cc2n1 (stereo not shown) [Compound 17] |  | < 100 |  |  | < 100
8 | (E)-2-(2-(4-((4-((6-chloro-2-methyl-2H-indazol-5-yl)imino)-2,6-dioxy-3-(2,4,5-Trifluorobenzyl)-1,3,5-triazin-1-yl)methyl)-1H-1,2,3-triazol-1-yl)ethoxy yl)-N-(2-(2,6-dioxopiperidin-3-yl)-1,3-dioxoisoindolin-4-yl)acetamide [Compound 16] |  | < 100 | 100 to 1000 |  | < 100
9 | (E)-4-(4-((4-((6-chloro-2-methyl-2H-indazol-5-yl)imino)-2,6-dioxy-3-(2,4,5-Trifluorobenzyl)-1,3,5-triazin-1-yl)methyl)-1H-1,2,3-triazol-1-yl)-N-(2-Preparation of (2,6-dioxopiperidin-3-yl)-1,3-dioxoisoindolin-4-yl)butanamide [Compound 8] |  | < 100 | < 100 | < 100 | < 100
10 | (E)-5-(4-((4-((6-chloro-2-methyl-2H-indazol-5-yl)imino)-2,6-dioxy-3-(2,4,5-Trifluorobenzyl)-1,3,5-triazin-1-yl)methyl)-1H-1,2,3-triazol-1-yl)-N-(2-Preparation of (2,6-dioxopiperidin-3-yl)-1,3-dioxoisoindolin-4-yl)pentanamide [Compound 9] |  | < 100 | < 100 | < 100 | < 100
11 | (E)-6-(4-((4-((6-chloro-2-methyl-2H-indazol-5-yl)imino)-2,6-dioxy-3-(2,4,5-Trifluorobenzyl)-1,3,5-triazin-1-yl)methyl)-1H-1,2,3-triazol-1-yl)-N-(2-Preparation of (2,6-dioxopiperidin-3-yl)-1,3-dioxoisoindolin-4-yl)hexanamide [Compound 10] |  | < 100 | < 100 | < 100 | < 100
12 | (E)-7-(4-((4-((6-chloro-2-methyl-2H-indazol-5-yl)imino)-2,6-dioxy-3-(2,4,5-Trifluorobenzyl)-1,3,5-triazin-1-yl)methyl)-1H-1,2,3-triazol-1-yl)-N-(2-Preparation of (2,6-Dioxypiperidin-3-yl)-1-oxoisoquinolin-4-yl)heptamide [Compound 5] |  | < 100 | 100 to 1000 |  | < 100
13 | (E)-7-(4-((4-((6-chloro-2-methyl-2H-indazol-5-yl)imino)-2,6-dioxy-3-(2,4,5-Trifluorobenzyl)-1,3,5-triazin-1-yl)methyl)-1H-1,2,3-triazol-1-yl)-N-(2-Preparation of (2,6-dioxopiperidin-3-yl)-1,3-dioxoisoindolin-4-yl)heptamide [Compound 11] |  | 100 to 1000 | 100 to 1000 |  | 
14 | (E)-8-(4-((4-((6-Chloro-2-methyl-2H-indazol-5-yl)imino)-2,6-dioxy-3-(2,4,5-Trifluorobenzyl)-1,3,5-triazin-1-yl)methyl)-1H-1,2,3-triazol-1-yl)-N-(2-Preparation of (2,6-dioxopiperidin-3-yl)-1,3-dioxoisoindolin-4-yl)octamide [Compound 12] |  | 100 to 1000 | 100 to 1000 |  | 

Source: patent US11530195B1, “Protacs targeting coronavirus 3CL protease and preparation method and application thereof” (SHAANXI PANLONG PHARMACEUTICAL CO., LTD., priority 2022, dated 2022)
